Organism: Rattus norvegicus
Assay: DrugMatrix - Regimen: Daily Repeat
Type: toxicity, organism-based, Sprague-Dawley
Set-up: regimen Daily Repeat, gender Male, age 6-8 weeks
Conditions: in vivo, po, route oral GAVAGE, […]; for ABSOLUTE BASOPHIL / ABSOLUTE EOSINOPHIL / ABSOLUTE LYMPHOCYTE / ABSOLUTE MONOCYTE / ABSOLUTE SEGMENTED NEUTROPHIL / BASOPHIL / EOSINOPHIL / ERYTHROCYTE COUNT / HEMATOCRIT / HEMOGLOBIN / LEUKOCYTE COUNT / LYMPHOCYTE / MEAN CORPUSCULAR HEMOGLOBIN / MEAN CORPUSCULAR HEMOGLOBIN CONCENTRATION / MEAN CORPUSCULAR VOLUME / MONOCYTE / NEUTROPHIL / NUCLEATED RED BLOOD CELLS / PLATELET COUNT: tissue Blood; for ALANINE AMINOTRANSFERASE / ALKALINE PHOSPHATASE / ASPARTATE AMINOTRANSFERASE / BLOOD UREA NITROGEN / CARBON DIOXIDE / CHLORIDE / CHOLESTEROL / CREATINE PHOSPHOKINASE / CREATININE / GLUCOSE / LACTATE DEHYDROGENASE / LIPASE / PHOSPHORUS / POTASSIUM / SODIUM / TOTAL BILIRUBIN / TOTAL PROTEIN / URIC ACID: tissue Plasma
[1] = 0 mg/kg, 72 h, dose level Control, time 3 day
[2] = 0 mg/kg, 120 h, dose level Control, time 5 day
[3] = 10 mg/kg, 72 h, dose level Low, time 3 day

## CCOC(=O)C1=C(C)NC(C)=C(C(=O)OC)C1c1cccc([N+](=O)[O-])c1 (stereo not given) [NITRENDIPINE]
[1]
  ABSOLUTE BASOPHIL: 0 CELLS/uL
  ABSOLUTE EOSINOPHIL: 0 CELLS/uL
  ABSOLUTE LYMPHOCYTE: 9244.83 CELLS/uL
  ABSOLUTE MONOCYTE: 102 CELLS/uL
  ABSOLUTE SEGMENTED NEUTROPHIL: 869.83 CELLS/uL
  BASOPHIL: 0%
  EOSINOPHIL: 0%
  ERYTHROCYTE COUNT: 5.43 x10E6/uL
  HEMATOCRIT: 34.03%
  HEMOGLOBIN: 13.27 G/DL
  LEUKOCYTE COUNT: 10.22 x10E3/uL
  LYMPHOCYTE: 90.33%
  MEAN CORPUSCULAR HEMOGLOBIN: 24.48 pg
  MEAN CORPUSCULAR HEMOGLOBIN CONCENTRATION: 39.03 G/DL
  MEAN CORPUSCULAR VOLUME: 62.75 fL
  MONOCYTE: 1%
  NEUTROPHIL: 8.67%
  NUCLEATED RED BLOOD CELLS: 0.17 /100WBC
  PLATELET COUNT: 989 x10E3/uL
  ALANINE AMINOTRANSFERASE: 77 u/L
  ALKALINE PHOSPHATASE: 464.83 u/L
  ASPARTATE AMINOTRANSFERASE: 89.83 u/L
  BLOOD UREA NITROGEN: 12.17 mg/dL
  CARBON DIOXIDE: 34.17 mmol/L
  CHLORIDE: 98.33 MEQ/L
  CHOLESTEROL: 75.17 mg/dL
  CREATINE PHOSPHOKINASE: 367.67 u/L
  CREATININE: 0.16 mg/dL
  GLUCOSE: 142.67 mg/dL
  LACTATE DEHYDROGENASE: 139.33 u/L
  LIPASE: 9.5 u/L
  PHOSPHORUS: 10.85 mg/dL
  POTASSIUM: 6.38 MEQ/L
  SODIUM: 143.2 MEQ/L
  TOTAL BILIRUBIN: 0.2 mg/dL
  TOTAL PROTEIN: 5.77 G/DL
  URIC ACID: 0.7 mg/dL
[2]
  ABSOLUTE BASOPHIL: 0 CELLS/uL
  ABSOLUTE EOSINOPHIL: 0 CELLS/uL
  ABSOLUTE LYMPHOCYTE: 8295.33 CELLS/uL
  ABSOLUTE MONOCYTE: 84.67 CELLS/uL
  ABSOLUTE SEGMENTED NEUTROPHIL: 970 CELLS/uL
  BASOPHIL: 0%
  EOSINOPHIL: 0%
  ERYTHROCYTE COUNT: 5.74 x10E6/uL
  HEMATOCRIT: 36.22%
  HEMOGLOBIN: 13.85 G/DL
  LEUKOCYTE COUNT: 9.35 x10E3/uL
  LYMPHOCYTE: 88.67%
  MEAN CORPUSCULAR HEMOGLOBIN: 24.13 pg
  MEAN CORPUSCULAR HEMOGLOBIN CONCENTRATION: 38.25 G/DL
  MEAN CORPUSCULAR VOLUME: 63.08 fL
  MONOCYTE: 1%
  NEUTROPHIL: 10.33%
  NUCLEATED RED BLOOD CELLS: 0.17 /100WBC
  PLATELET COUNT: 883.83 x10E3/uL
  ALANINE AMINOTRANSFERASE: 64.5 u/L
  ALKALINE PHOSPHATASE: 425.67 u/L
  ASPARTATE AMINOTRANSFERASE: 88.5 u/L
  BLOOD UREA NITROGEN: 14.17 mg/dL
  CARBON DIOXIDE: 30.5 mmol/L
  CHLORIDE: 100.33 MEQ/L
  CHOLESTEROL: 55.33 mg/dL
  CREATINE PHOSPHOKINASE: 287.17 u/L
  CREATININE: 0.2 mg/dL
  GLUCOSE: 162.83 mg/dL
  LACTATE DEHYDROGENASE: 111.33 u/L
  LIPASE: 10.5 u/L
  PHOSPHORUS: 10.32 mg/dL
  POTASSIUM: 5.13 MEQ/L
  SODIUM: 143.93 MEQ/L
  TOTAL BILIRUBIN: 0.17 mg/dL
  TOTAL PROTEIN: 5.9 G/DL
  URIC ACID: 0.77 mg/dL
[3]
  ABSOLUTE BASOPHIL: 0 CELLS/uL
  ABSOLUTE EOSINOPHIL: 0 CELLS/uL
  ABSOLUTE LYMPHOCYTE: 9214.67 CELLS/uL
  ABSOLUTE MONOCYTE: 145.33 CELLS/uL
  ABSOLUTE SEGMENTED NEUTROPHIL: 940 CELLS/uL
  BASOPHIL: 0%
  EOSINOPHIL: 0%
  ERYTHROCYTE COUNT: 5.43 x10E6/uL
  HEMATOCRIT: 33.93%
  HEMOGLOBIN: 13.03 G/DL
  LEUKOCYTE COUNT: 10.3 x10E3/uL
  LYMPHOCYTE: 89.33%
  MEAN CORPUSCULAR HEMOGLOBIN: 24.03 pg
  MEAN CORPUSCULAR HEMOGLOBIN CONCENTRATION: 38.4 G/DL
  MEAN CORPUSCULAR VOLUME: 62.6 fL
  MONOCYTE: 1.33%
  NEUTROPHIL: 9.33%
  NUCLEATED RED BLOOD CELLS: 0 /100WBC
  PLATELET COUNT: 1124 x10E3/uL
  ALANINE AMINOTRANSFERASE: 72 u/L
  ALKALINE PHOSPHATASE: 422 u/L
  ASPARTATE AMINOTRANSFERASE: 86 u/L
  BLOOD UREA NITROGEN: 10.33 mg/dL
  CARBON DIOXIDE: 34.33 mmol/L
  CHLORIDE: 98.67 MEQ/L
  CHOLESTEROL: 71.67 mg/dL
  CREATINE PHOSPHOKINASE: 319.33 u/L
  CREATININE: 0.11 mg/dL
  GLUCOSE: 145.33 mg/dL
  LACTATE DEHYDROGENASE: 130.67 u/L
  LIPASE: 11.33 u/L
  PHOSPHORUS: 10.8 mg/dL
  POTASSIUM: 6.13 MEQ/L
  SODIUM: 144.4 MEQ/L
  TOTAL BILIRUBIN: 0.2 mg/dL
  TOTAL PROTEIN: 5.6 G/DL

— ChEMBL document CHEMBL3885881, “DrugMatrix”
